Target: 5-hydroxytryptamine receptor 6 (Homo sapiens, UniProt P50406)
Sequence (P50406 whole entry): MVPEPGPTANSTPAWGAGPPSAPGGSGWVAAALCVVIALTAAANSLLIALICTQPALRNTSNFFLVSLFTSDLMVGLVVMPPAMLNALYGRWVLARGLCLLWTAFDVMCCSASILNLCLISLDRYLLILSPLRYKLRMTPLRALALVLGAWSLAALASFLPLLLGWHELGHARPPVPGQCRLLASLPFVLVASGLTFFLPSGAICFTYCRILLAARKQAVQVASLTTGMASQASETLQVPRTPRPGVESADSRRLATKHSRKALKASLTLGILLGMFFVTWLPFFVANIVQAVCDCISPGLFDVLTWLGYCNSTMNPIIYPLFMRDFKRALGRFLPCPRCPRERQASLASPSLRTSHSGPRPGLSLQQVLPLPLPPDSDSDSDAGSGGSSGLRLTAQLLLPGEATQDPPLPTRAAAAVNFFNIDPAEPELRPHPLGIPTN

With `CC(N)Cc1c[nH]c2ccc(OCc3cccs3)cc12` (stereo unspecified) [NSC_5311036] the Ki was 0.398 µM.

From BindingDB's records for doi:10.1016/s0028-3908(96)00171-2 (Smithkline Beecham Pharmaceuticals, 1997)
